From patent EP1120414A1, “DISUBSTITUTED MALEIMIDE COMPOUNDS AND MEDICINAL UTILIZATION THEREOF” (Japan Tobacco Inc., priority 1998, dated 2000)
Like-named read-outs stand apart in the source and are kept apart here.

Tests used:
PKC β II = molecular target: T1, PKC β II (Homo sapiens, UniProt P05771); assay: PKC enzyme assay (BIOTRAK Protein kinase C enzyme assay system, 32P-ATP phosphorylation of peptide […]); type: biochemical; settings: for Ratio α/β: IC50 PKC α / IC50 PKC β II
T1 construct: purchased CALBIOCHEM
T1 sequence (P05771 other isoform, or with tags, fused parts or gaps): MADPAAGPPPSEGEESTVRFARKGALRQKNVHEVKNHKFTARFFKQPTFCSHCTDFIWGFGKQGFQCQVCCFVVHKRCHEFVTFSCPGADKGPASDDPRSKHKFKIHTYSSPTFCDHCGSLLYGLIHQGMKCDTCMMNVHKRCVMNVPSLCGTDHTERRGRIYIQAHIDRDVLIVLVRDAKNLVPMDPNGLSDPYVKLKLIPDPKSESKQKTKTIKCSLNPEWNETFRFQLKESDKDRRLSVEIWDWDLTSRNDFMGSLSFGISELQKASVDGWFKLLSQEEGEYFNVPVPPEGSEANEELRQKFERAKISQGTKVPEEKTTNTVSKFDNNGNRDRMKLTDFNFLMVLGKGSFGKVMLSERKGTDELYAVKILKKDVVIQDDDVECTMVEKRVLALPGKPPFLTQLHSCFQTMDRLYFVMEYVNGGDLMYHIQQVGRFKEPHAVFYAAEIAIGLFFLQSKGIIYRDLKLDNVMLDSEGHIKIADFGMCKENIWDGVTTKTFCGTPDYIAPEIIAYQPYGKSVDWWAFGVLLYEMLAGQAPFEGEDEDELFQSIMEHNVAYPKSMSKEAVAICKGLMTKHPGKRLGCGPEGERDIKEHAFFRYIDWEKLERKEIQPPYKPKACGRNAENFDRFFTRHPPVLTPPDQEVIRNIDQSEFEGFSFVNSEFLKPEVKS
From the text: The method for determining the PKC inhibitory activity of the compound of the present invention is explained in the following. Inasmuch as PKCβII is present in greater number in intravascular cells than PKCβI, PKCβII was mainly used here to test the enzyme activity.
(§1) As the reagent for enzyme assay, BIOTRAK Protein kinase C enzyme assay system (hereinafter the system, Amersham), and as the PKC enzyme standard product, Protein Kinase C, Human Recombinant (CALBIOCHEM) were purchased and used in the assay. A substrate mixture was prepared by mixing calcium buffer (12 mM calcium acetate, 50 mM Tris/HCl pH 7.5, 0.05% (w/v) sodium azide), Lipid (0.3 mg/ml La-phosphatidyl-L-serine, […] phorbol 12-myristate 13-acetate, 50 mM Tris/HCl pH 7.5, 0.05% (w/v) sodium azide), peptide buffer (900 µM peptide […]), 50 mM Tris/HCl pH 7.5, 0.05% (w/v) sodium azide), DTT buffer (30 mM dithiothreitol, 50 mM Tris/HCl pH 7.5, 0.05% (w/v) sodium azide), and magnesium ATP buffer (1.2 mM ATP, […] pH 7.4, 72 mM magnesium chloride) all attached to the system in a ratio of 1:1:1:1:0.8 and adding [ y -32P]ATP (Amersham, cat. […] The PKC enzyme standard product was diluted with an assay buffer (10 mM Hepes pH 7.4, 0.01% Triton X-100) to a concentration of 400 ng/ml and used as the enzyme solution. The substrate mixture and a test substance (diluted to the final concentration of 1 nM-10 µM with dimethyl sulfoxide (DMSO)) were mixed at a ratio of 20:1. The enzyme solution was added in the amount equivalent to the substrate mixture and mixed, which was followed by incubation at 37°C for 15 minutes. The reaction terminator (300 mM orthophosphoric acid containing carmosine red) attached to the system was added in the amount equivalent to the substrate mixture to end the reaction, and the reaction mixture was spotted on a phosphocellulose paper (Whatman, P-81), washed twice with 75 mM orthophosphoric acid and assayed for radioactivity by BAS2000 (Fuji film).
(§2) The ratio of the radioactivity of the addition of the test substance to the addition of DMSO was determined, and IC50 was calculated from inhibition at each concentration.

PKC α = molecular target: T2, PKC α (Homo sapiens, UniProt P17252); assay: as above; type: biochemical
T2 construct: purchased CALBIOCHEM
Description: as §1, §2

[1] = Protein Kinase C, Human Recombinant, test substance 1 nM-10 µM, 37°C, 15 minutes, read-out: Inhibition of PKC activity IC50 PKC β II
[2] = Protein Kinase C, Human Recombinant, test substance 1 nM-10 µM, 37°C, 15 minutes, read-out: Inhibition of PKC activity IC50 PKC α
[3] = read-out: Inhibition of PKC activity IC50 PKC β II, Protein Kinase C, Human Recombinant, test substance 1 nM-10 µM, 37°C, 15 minutes
[4] = read-out: Inhibition of PKC activity IC50 PKC α, Protein Kinase C, Human Recombinant, test substance 1 nM-10 µM, 37°C, 15 minutes

Ratio α/β (PKC β II) | IC50 (PKC β II; [1]) [µM] | IC50 (PKC α; [2]) [µM] | IC50 (PKC β II; [3]) [µM] | IC50 (PKC α; [4]) [µM] | IC50 (PKC β II) [µM] | IC50 (PKC α) [µM] | SMILES
79 | 0.08 | 6.29 | – | – | – | – | CN(C)CCN(C)CCn1cc(C2=C(Nc3ccccc3)C(=O)NC2=O)c2ccccc21 [Example 2-16, 3-[1-{2-[N-(2-dimethylaminoethyl)-N-methylamino]ethyl}-1H-indol-3-yl]-4-(phenylamino)-1H-pyrrole-2,5-dione]
34 | 0.027 | 0.908 | – | – | – | – | O=C1NC(=O)C(c2cn(CCCn3ccnc3)c3ccccc23)=C1Nc1ccc(Br)cc1 [Example 2-66, 3-[(4-bromophenyl)amino]-4-[1-(3-imidazol-1-ylpropyl)-1H-indol-3-yl]-1H-pyrrole-2,5-dione]
50 | – | – | 0.016 | 0.794 | – | – | COc1ccc(NC2=C(c3c4n(c5ccccc35)C[C@@H](CO)C4)C(=O)NC2=O)cc1 [Example 4-62]
107 | – | – | 0.007 | 0.749 | – | – | O=C1NC(=O)C(c2c3n(c4ccccc24)C[C@H](CO)C=C3)=C1Nc1ccccc1 [Example 4-43]
45 | 0.103 | 4.63 | – | – | – | – | CCN(CCCn1cc(C2=C(Nc3ccccc3)C(=O)NC2=O)c2ccccc21)Cc1ccccc1 [Example 2-17, 3-[1-{3-(N-benzyl-N-ethylamino)propyl}-1H-indol-3-yl)-4-(phenylamino)-1H-pyrrole-2,5-dione]
19 | 0.016 | 0.298 | – | – | – | – | O=C1NC(=O)C(c2cn(CC3CCNCC3)c3ccccc23)=C1Nc1ccccc1 [Example 3-2, 3-(phenylamino)-4-[1-(4-piperidylmethyl)-1H-indol-3-yl]-1H-pyrrole-2,5-dione]
34 | 0.108 | 3.66 | – | – | – | – | NC(=O)N1CCC(Cn2cc(C3=C(Nc4ccccc4)C(=O)NC3=O)c3ccccc32)CC1 [Example 3-6, 3-[1-{(1-carbamoylpiperidin-4-yl)methyl}-1H-indol-3-yl]-4-(phenylamino)-1H-pyrrole-2,5-dione]
37 | 0.018 | 0.662 | – | – | – | – | O=C1NC(=O)C(c2cn(CCCN3CCCC3)c3ccccc23)=C1Nc1ccccc1 [Example 2-22, 3-(phenylamino)-4-(1-(3-pyrrolidin-1-ylpropyl)-1H-indol-3-yl]-1H-pyrrole-2,5-dione]
41 | 0.095 | 3.89 | – | – | – | – | O=C1NC(=O)C(c2cn(CCCS(=O)(=O)c3ccccc3)c3ccccc23)=C1Nc1ccccc1 [Example 2-35, 3-[1-{3-(phenylsulfonyl)propyl}-1H-indol-3-yl]-4-(phenylamino)-1H-pyrrole-2,5-dione]
75 | 0.025 | 1.87 | – | – | – | – | CN1CCN(CCCCn2cc(C3=C(Nc4ccccc4)C(=O)NC3=O)c3ccccc32)CC1 [Example 2-29, 3-[1-{4-(4-methylpiperazin-1-yl)butyl}-1H-indol-3-yl]-4-(phenylamino)-1H-pyrrole-2,5-dione]
46 | 0.017 | 0.773 | – | – | – | – | O=C1NC(=O)C(c2cn(CCCN3CCSCC3)c3ccccc23)=C1Nc1ccccc1 [Example 2-21, 3-(phenylamino)-4-[1-(3-thiomorpholinopropyl)-1H-indol-3-yl]-1H-pyrrole-2,5-dione]
112 | – | – | 0.089 | > 10 | – | – | NC(=O)c1cccc(NC2=C(c3c4n(c5ccccc35)C[C@H](CO)CC4)C(=O)NC2=O)c1 [Example 4-46]
104 | 0.096 | > 10 | – | – | – | – | Cc1c(C2=C(Nc3ccccc3)C(=O)NC2=O)c2ccccc2n1CCCN1CCCC1 [Example 2-55, 3-[2-methyl-1-(3-pyrrolidin-1-ylpropyl)-1H-indol-3-yl]-4-(phenylamino)-1H-pyrrole-2,5-dione]
46 | 0.009 | 0.413 | – | – | – | – | O=C1NC(=O)C(c2cn(CCCN3CCC(O)CC3)c3ccccc23)=C1Nc1ccccc1 [Example 2-25, 3-[1-{3-(4-hydroxypiperidino)propyl}-1H-indol-3-yl]-4-(phenylamino)-1H-pyrrole-2,5-dione]
72 | 0.017 | 1.23 | – | – | – | – | O=C1NC(=O)C(c2cn(CCCN3CCOCC3)c3ccccc23)=C1Nc1ccccc1 [Example 2-19, 3-[1-(3-morpholinopropyl)-1H-indol-3-yl]-4-(phenylamino)-1H-pyrrole-2,5-dione]
49 | 0.015 | 0.727 | – | – | – | – | Cc1cccc(NC2=C(c3cn(CCCN(C)C)c4ccccc34)C(=O)NC2=O)c1 [Example 2-11, 3-[1-(3-dimethylaminopropyl)-1H-indol-3-yl]-4-[(3-methylphenyl)amino]-1H-pyrrole-2,5-dione]
131 | – | – | – | – | 0.04 | 5.22 | COC[C@H]1Cc2c(C3=C(Nc4ccccc4)C(=O)NC3=O)c3ccccc3n2C1 [Example 4-56]
17 | 0.06 | > 1 | – | – | – | – | O=C1NC(=O)C(c2cn(CCCn3cccn3)c3ccccc23)=C1Nc1ccccc1 [Example 2-37, 3-(phenylamino)-4-[1-(3-pyrazol-1-ylpropyl)-1H-indol-3-yl]-1H-pyrrole-2,5-dione]
76 | – | – | 0.006 | 0.455 | – | – | CN(C)C[C@H]1Cc2c(C3=C(Nc4ccc(F)cc4)C(=O)NC3=O)c3ccccc3n2C1 [Example 4-69]
46 | 0.056 | 2.56 | – | – | – | – | Cl.N=C(N)N1CCC(Cn2cc(C3=C(Nc4ccccc4)C(=O)NC3=O)c3ccccc32)CC1 [Example 3-7, 3-[1-{(1-amidinopiperidin-4-yl)methyl}-1H-indol-3-yl]-4-(phenylamino)-1H-pyrrole-2,5-dione hydrochloride]
65 | 0.084 | 5.49 | – | – | – | – | CCN(C)CCCn1c(C)c(C2=C(Nc3ccccc3)C(=O)NC2=O)c2ccccc21 [Example 2-56, 3-[1-{3-(ethylmethylamino)propyl}-2-methyl-1H-indol-3-yl]-4-(phenylamino)-1H-pyrrole-2,5-dione]
47 | 0.019 | 0.886 | – | – | – | – | O=C1NC(=O)C(c2cn(CCCN3CCC(CO)CC3)c3ccccc23)=C1Nc1ccccc1 [Example 2-50, 3-[1-{3-[4-(hydroxymethyl)piperidino]propyl}-1H-indol-3-yl]-4-(phenylamino)-1H-pyrrole-2,5-dione]
70 | 0.041 | 2.86 | – | – | – | – | Cc1cccc(NC2=C(c3cn(CCCO)c4ccccc34)C(=O)NC2=O)c1 [Example 2-2, 3-[1-(3-hydroxypropyl)-1H-indol-3-yl]-4-[(3-methylphenyl)amino]-1H-pyrrole-2,5-dione]
35 | 0.198 | 6.91 | – | – | – | – | O=C1NC(=O)C(c2c[nH]c3ccccc23)=C1Nc1cccc(Cl)c1 [Example 1-6, 3-[(3-chlorophenyl)amino]-4-(1H-indol-3-yl)-1H-pyrrole-2,5-dione]
64 | – | – | 0.003 | 0.186 | – | – | CCNCC1Cc2c(C3=C(Nc4ccccc4)C(=O)NC3=O)c3ccccc3n2C1 (stereo not drawn) [Example 4-31]
45 | 0.008 | 0.356 | – | – | – | – | Cc1cncn1CCCn1cc(C2=C(Nc3cccc(Cl)c3)C(=O)NC2=O)c2ccccc21 [Example 2-59, 3-[(3-chlorophenyl)amino]-4-[1-{3-(5-methyl-imidazol-1-yl)propyl}-1H-indol-3-yl]-1H-pyrrole-2,5-dione]
134 | – | – | 0.025 | 3.36 | – | – | O=C1NC(=O)C(c2c3n(c4ccccc24)CC(CN2CCSCC2)C3)=C1Nc1ccccc1 (stereo not drawn) [Example 4-28]
121 | – | – | 0.022 | 2.66 | – | – | O=C1NC(=O)C(c2c3n(c4ccccc24)C[C@H](CN2CCOCC2)CC3)=C1Nc1ccccc1 [Example 4-42]
85 | – | – | 0.004 | 0.341 | – | – | O=C1NC(=O)C(c2c3n(c4ccccc24)C[C@@H](CO)C3)=C1Nc1ccc(F)cc1 [Example 4-68]
